Reference: patent US8273754B2, “Substituted 1H-pyrazolo[3,4-D]pyrimidine-6-amine compounds” (ArQule, Inc., priority 2008, dated 2012)
Like-named read-outs stand apart in the source and are kept apart here.

System: cancer cells
Assay: MTS cell growth inhibition assay (72 hours)
Type: cell-based
Outline: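 Cells in DMEM with 1% FBS, seeded 18 h, then compound-treated 72 h at 37 °C. Viability by MTS/PMS for 4 h, formazan absorbance at 492 nm; IC50 taken as concentration giving 50% absorbance drop, activity banded by percent inhibition.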

[1] = Homo sapiens, DLD-1, 72 h, DLD-1 cells, read-out: DLD-1 MTS 72 hr at 10 μM
[2] = Homo sapiens, KATO III, 72 h, KATO III cells, read-out: KATO III MTS 72 hr at 10 μM
[3] = Homo sapiens, MDA-MB-231, 72 h, MDA-MB-231 cells, read-out: MDA-MB-231 MTS 72 hr at 10 μM
[4] = Homo sapiens, NCI-H1299, 72 h, NCI-H1299 cells, read-out: NCI-H1299 MTS 72 hr at 10 μM
[5] = PaCa-2, 72 h, PACA-2 cells, read-out: PACA-2 MTS 72 hr at 10 μM

Compound	inhibition at 10 µM [1]	inhibition at 10 µM [2]	inhibition at 10 µM [3]	inhibition at 10 µM [4]	inhibition at 10 µM [5]
Nc1nc(NC2CCN(S(=O)(=O)c3ccc(F)cc3)c3ccccc3C2)c2cn[nH]c2n1 (centres unmarked) [Compound 183, N4-{1-[(4-fluorophenyl)sulfonyl]-2,3,4,5-tetrahydro-1H-1-benzazepin-4-yl}-1H-pyrazolo[3,4-d]pyrimidine-4,6-diamine]	< 50%	< 50%	< 50%	< 50%	< 50%
Nc1nc(NC2Cc3ccccc3N(S(=O)(=O)c3cccc(NC(=O)Nc4ccc(C(F)(F)F)cc4)c3)C2)c2cn[nH]c2n1 (centres unmarked) [Compound 209, 1-[3-({3-[(6-amino-1H-pyrazolo[3,4-d]pyrimidin-4-yl)amino]-3,4-dihydroquinolin-1(2H)-yl}sulfonyl)phenyl]-3-[4-(trifluoromethyl)phenyl]urea]	> 79%	> 79%	> 79%	> 79%	> 79%
Nc1nc(NC2Cc3ccccc3N(Cc3cccc(Oc4cc(Cl)cc(Cl)c4)c3)C2)c2cn[nH]c2n1 (centres unmarked) [Compound 154, N4-{1-[3-(3,5-dichlorophenoxy)benzyl]-1,2,3,4-tetrahydroquinolin-3-yl}-1H-pyrazolo[3,4-d]pyrimidine-4,6-diamine]	> 79%	> 79%	50 to 79%	50 to 79%	50 to 79%
Nc1nc(NC2CCN(S(=O)(=O)c3ccc(Cl)cc3)c3ccccc3C2)c2cn[nH]c2n1 (centres unmarked) [Compound 171, N4-{1-[(4-chlorophenyl)sulfonyl]-2,3,4,5-tetrahydro-1H-1-benzazepin-4-yl}-1H-pyrazolo[3,4-d]pyrimidine-4,6-diamine]	< 50%	< 50%	< 50%	< 50%	< 50%
COc1cc(CN2CC(Nc3nc(N)nc4[nH]ncc34)Cc3ccccc32)ccc1OCc1ccccc1 (centres unmarked) [Compound 156, N4-{1-[4-(benzyloxy)-3-methoxybenzyl]-1,2,3,4-tetrahydroquinolin-3-yl}-1H-pyrazolo[3,4-d]pyrimidine-4,6-diamine]	50 to 79%	< 50%	< 50%	< 50%	< 50%
COc1ccc(CC(=O)N2CC(Nc3nc(N)nc4[nH]ncc34)Cc3ccccc32)cc1OC (centres unmarked) [Compound 95, 1-(3-(6-amino-1H-pyrazolo[3,4-d]pyrimidin-4-ylamino)-3,4-dihydroquinolin-1(2H)-yl)-2-(3,4-dimethoxyphenyl)ethanone]	< 50%	< 50%	< 50%	< 50%	< 50%
N#Cc1ccc(S(=O)(=O)N2CC(Nc3nc(N)nc4[nH]ncc34)Cc3ccccc32)cc1 (centres unmarked) [Compound 30, 4-(3-(6-amino-1H-pyrazolo[3,4-d]pyrimidin-4-ylamino)-3,4-dihydroquinolin-1(2H)-ylsulfonyl)benzonitrile]	< 50%	< 50%	< 50%	< 50%	< 50%
Cc1ccc(C)c(S(=O)(=O)N2CCC(Nc3nc(N)nc4[nH]ncc34)Cc3ccccc32)c1 (centres unmarked) [Compound 184, N4-{1-[(2,5-dimethylphenyl)sulfonyl]-2,3,4,5-tetrahydro-1H-1-benzazepin-4-yl}-1H-pyrazolo[3,4-d]pyrimidine-4,6-diamine]	< 50%	< 50%	< 50%	< 50%	< 50%
Cc1c(C(=O)N2CC(Nc3nc(N)nc4[nH]ncc34)Cc3ccccc32)oc2ccccc12 (centres unmarked) [Compound 91, (3-(6-amino-1H-pyrazolo[3,4-d]pyrimidin-4-ylamino)-3,4-dihydroquinolin-1(2H)-yl)(3-methylbenzofuran-2-yl)methanone]	50 to 79%	> 79%	> 79%	< 50%	> 79%
Nc1nc(NC2Cc3ccccc3N(S(=O)(=O)c3cccc(NC(=O)Nc4cccc(Cl)c4F)c3)C2)c2cn[nH]c2n1 (centres unmarked) [Compound 221, 1-[3-({3-[(6-amino-1H-pyrazolo[3,4-d]pyrimidin-4-yl)amino]-3,4-dihydroquinolin-1(2H)-yl}sulfonyl)phenyl]-3-(3-chloro-2-fluorophenyl)urea]	> 79%	> 79%	> 79%	> 79%	> 79%
Nc1nc(NC2Cc3ccccc3N(S(=O)(=O)c3ccc(-c4ccccc4)cc3)C2)c2cn[nH]c2n1 (centres unmarked) [Compound 16, N4-(1-(biphenyl-4-ylsulfonyl)-1,2,3,4-tetrahydroquinolin-3-yl)-1H-pyrazolo[3,4-d]pyrimidine-4,6-diamine]	50 to 79%	50 to 79%	< 50%	< 50%	50 to 79%
COc1ccc(F)c(CN2CC(Nc3nc(N)nc4[nH]ncc34)Cc3ccccc32)c1 (centres unmarked) [Compound 142, N4-[1-(2-fluoro-5-methoxybenzyl)-1,2,3,4-tetrahydroquinolin-3-yl]-1H-pyrazolo[3,4-d]pyrimidine-4,6-diamine]	< 50%	50 to 79%	< 50%	< 50%	> 79%
Nc1nc(NC2Cc3ccccc3N(S(=O)(=O)c3cccc(NC(=O)NCc4ccccc4)c3)C2)c2cn[nH]c2n1 (centres unmarked) [Compound 210, 1-[3-({3-[(6-amino-1H-pyrazolo[3,4-d]pyrimidin-4-yl)amino]-3,4-dihydroquinolin-1(2H)-yl}sulfonyl)phenyl]-3-benzylurea]	< 50%	< 50%	< 50%	< 50%	< 50%
Cc1ccc(C)c(CN2CC(Nc3nc(N)nc4[nH]ncc34)Cc3ccccc32)c1 (centres unmarked) [Compound 148, N4-[1-(2,5-dimethylbenzyl)-1,2,3,4-tetrahydroquinolin-3-yl]-1H-pyrazolo[3,4-d]pyrimidine-4,6-diamine]	> 79%	> 79%	50 to 79%	50 to 79%	> 79%
Nc1nc(NC2Cc3ccccc3N(C(=O)Nc3cc(C(F)(F)F)ccc3F)C2)c2cn[nH]c2n1 (centres unmarked) [Compound 108, 3-(6-amino-1H-pyrazolo[3,4-d]pyrimidin-4-ylamino)-N-(2-fluoro-5-(trifluoromethyl)phenyl)-3,4-dihydroquinoline-1(2H)-carboxamide]	< 50%	< 50%	< 50%	< 50%	< 50%
COc1ccc(-c2ccc(S(=O)(=O)N3CC(Nc4nc(N)nc5[nH]ncc45)Cc4ccccc43)cc2)cc1 (centres unmarked) [Compound 60, N4-(1-(4′-methoxybiphenyl-4-ylsulfonyl)-1,2,3,4-tetrahydroquinolin-3-yl)-1H-pyrazolo[3,4-d]pyrimidine-4,6-diamine]	< 50%	< 50%	< 50%	< 50%	< 50%
